We go through two molecules from patent US20260315431A1, “NANOMATERIAL ENCAPSULATED BIOFILM INHIBITORS FOR DENTAL CARIES TREATMENT” (THE UAB RESEARCH FOUNDATION, priority 2023, published 2026).

For one assay, the system named is S. gordonii DL1. The experiment in a line: Commensal biofilm inhibition, S. gordonii DL1 (crystal violet, OD562). The conditions noted are these: for S. gordonii biofilm: 25 μM. The format is cell-based, Streptococcus gordonii. How it is done: (§1) The bacterial strains, S. mutans UA159, S. gordonii DL1, and S. sanguinis SK36 were inoculated statically at 37° C. under 5% CO2 in Todd Hewitt Broth (THB) for 24 h. The cultures were then diluted with fresh THB (1:5) and reinoculated until optical density at 470 nm (OD470) reached 1. The optical density was read using BioTek 800TS microplate reader at 470 nm for bacterial growth and 562 nm for biofilm stained with crystal violet. Data was plotted in Graphpad Prism9.
Biofilm inhibition assays. Biofilm inhibition assays were performed in polystyrene microtiter 96 well plates. Stock solutions were prepared in chemically defined medium (CDM, JRH Biosciences, Lenexa, KS) with 2% sucrose, 1% bacteria cultures and various concentrations of the small molecule inhibitors to examine their activity against biofilm formation as described^69, 70. These stocks were assayed in 96 well plates in triplicate and incubated at 37° C. and 5% CO2 for 16 h. After reading optical density for bacterial growth, the plate was gently washed with water, dried, and stained with crystal violet, and then gently rinsed again with deionized water leaving the stained biofilm at the bottoms of the wells. Biofilms was dissolved in 200 μL of 30% acetic acid and absorbance at 562 nm was used read to determine biofilm biomass. Each assay was carried out at least in triplicate. Biofilm inhibitory concentration (IC50) of the compounds was determined by serial dilutions.
(§2) All bacterial strains (S. mutans UA159, S. gordonii DL1, and S. sanguinis SK36) were inoculated statically at 37° C. under 5% CO2 environment in Todd Hewitt Broth (THB) for 24 h^[61]. […] The optical density was read using BioTek 800 TS absorbance reader at 470 nm for bacterial growth and 562 nm for biofilm stained with crystal violet. […]
Biofilm inhibition assays were performed in polystyrene microtiter 96-well plates. […] After reading optical density for bacterial growth, the plate was washed, dried, and stained with 0.1% crystal violet which was again rinsed well with deionized water leaving the stained biofilm at the bottoms of the wells. […]

The test system of assay [1] is S. sanguinis SK36. Description: Commensal biofilm inhibition, S. sanguinis SK36 (crystal violet, OD562). In kind it is cell-based, Streptococcus sanguinis. The conditions noted are these: 25 μM. The method, then: as §1
Biofilm inhibition assays. Biofilm inhibition assays were performed in polystyrene microtiter 96 well plates. […] After reading optical density for bacterial growth, the plate was gently washed with water, dried, and stained with crystal violet, and then gently rinsed again with deionized water leaving the stained biofilm at the bottoms of the wells. Biofilms was dissolved in 200 μL of 30% acetic acid and absorbance at 562 nm was used read to determine biofilm biomass. […] Biofilm inhibitory concentration (IC50) of the compounds was determined by serial dilutions.
as §2

For assay [2], the system named is S. sanguinis SK36. The experiment in a line: Planktonic growth, S. sanguinis SK36 (OD470). In kind it is cell-based, Streptococcus sanguinis. The method, then:
as §1
(§3) S. mutans, S. gordonii, and S. sanguinis growth assays. Effects of compounds on S. mutans and commensal bacterial growth were evaluated using the growth assay as described^69. S. mutans UA159, S. gordonii DL1, S. sanguinis SK36, cultures were grown for 24 h under 5% CO2 at 37° C. These cultures were then reinoculated with fresh THB (1:5) until OD470=1 when the bacteria were ready to be used. Different concentrations of the inhibitor were assayed in chemically defined media (CDM) with 1% of the bacteria, 1% sucrose and 1% DMSO in 96 well plates. The 96 well plates were incubated under 5% CO2 at 37° C. for 16 h. Growth of the bacteria was read after 16 h at OD470. Each assay was carried out at least in triplicate.
All bacterial strains (S. mutans UA159, S. gordonii DL1, and S. sanguinis SK36) were inoculated statically at 37° C. under 5% CO2 environment in Todd Hewitt Broth (THB) for 24 h^[61]. The cultures were then diluted with fresh THB (1:5) and reinoculated until the optical density at 470 nm reaches 1. The optical density was read using BioTek 800 TS absorbance reader at 470 nm for bacterial growth and 562 nm for biofilm stained with crystal violet. Data was plotted in Prism 10.0.2.
as §3, with “Effects” for “S. mutans, S. gordonii, and S. sanguinis growth assays. Effects”, “PEHA5, PEHA6, HA5 or HA6” for “compounds”, “described^[62].” for “described^69.”, “PEHA5, PEHA6, HA5 or HA6” for “inhibitor”, “CDM” for “chemically defined media (CDM)”

Each structure is given as a SMILES string. “Also recorded” adds a separate entry of the source.

As to `O=C1/C(=C/c2cc(O)c(O)cc2O)Oc2ccccc21` [HA5, 2-[(2′,4′,5′-Trihydroxyphenyl)methylidene]-2,3-dihydro-1-benzofuran-3-one], in the assay with S. gordonii DL1, the “S. gordonii biofilm” value is given as “minimal”. The molecule further displayed an inhibition at 25 µM in the assay on S. gordonii DL1 (Streptococcus gordonii, DL1) of approximately 20%. The “S. sanguinis biofilm” value in the assay with S. sanguinis SK36 [1] is listed as “did not significantly reduce; also recorded: minimal”. For the same molecule, the “planktonic growth of S. sanguinis” value in the assay with S. sanguinis SK36 [2] (25 μM) is on record as “did not affect the planktonic growth”. For the same molecule, the “growth of S. sanguinis” value in the assay on S. sanguinis SK36 [2] (50 μM and 100 μM (100 μM)) was “did not inhibit the growth; also recorded: does not inhibit the growth”; in the assay on S. sanguinis SK36 [2] (at biofilm inhibiting doses), “without affecting the growth”.
For `O=C1/C(=C/c2cc(O)c(O)c(O)c2)Oc2ccccc21` [HA6, 2-[(3′,4′,5′-Trihydroxyphenyl)methylidene]-2,3-dihydro-1-benzofuran-3-one], in the assay with S. gordonii DL1, the “S. gordonii biofilm” value is “did not significantly reduce the biofilms”. Besides, the “S. sanguinis biofilm” value in the assay with S. sanguinis SK36 [1] is listed as “did not significantly reduce the biofilms”. For the same molecule, the “growth of S. sanguinis” value in the assay on S. sanguinis SK36 [2] (25 μM and 50 μM) is “did not inhibit the growth”; with S. sanguinis SK36 [2] (at biofilm inhibiting doses), “without affecting the growth”.

The inhibition is the share of the control response that was lost under treatment. Low values mean a response near the control, high ones a response far below the control.
